Assay results from ChEMBL document CHEMBL1139945, “Synthesis and biological evaluation of an 123I-labeled bicyclic nucleoside analogue (BCNA) as potential SPECT tracer for VZV-tk reporter gene imaging” (Bioorg Med Chem Lett, 2007).

Biological target: T1, Thymidine kinase (Varicella-zoster virus (strain Dumas) (HHV-3) (Human herpesvirus 3), UniProt P09250)
T1 sequence (P09250 whole entry): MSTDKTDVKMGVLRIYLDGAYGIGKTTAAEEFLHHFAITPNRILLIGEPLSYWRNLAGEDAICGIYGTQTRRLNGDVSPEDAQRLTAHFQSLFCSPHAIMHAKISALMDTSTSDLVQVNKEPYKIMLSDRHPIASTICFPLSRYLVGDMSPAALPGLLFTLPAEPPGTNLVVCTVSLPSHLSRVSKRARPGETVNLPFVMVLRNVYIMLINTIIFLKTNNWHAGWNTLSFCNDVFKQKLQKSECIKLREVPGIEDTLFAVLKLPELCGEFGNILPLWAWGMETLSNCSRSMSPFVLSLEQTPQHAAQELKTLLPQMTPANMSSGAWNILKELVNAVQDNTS
Experiment: Inhibition of VZV thymidine kinase
Set-up: species or system Human alphaherpesvirus 3

| Structure (SMILES) | IC50 |
| --- | --- |
| O=c1nc2oc(-c3ccc(I)c(O)c3)cc2cn1[C@H]1C[C@H](O)[C@@H](CO)O1 | 4.2 µM |
| O=c1nc2oc(-c3cccc(O)c3)cc2cn1[C@H]1C[C@H](O)[C@@H](CO)O1 | 2.6 µM |
